Assay results: US20200172529A1, “Chemical Compound, Pharmaceutical Composition Thereof, and Use and Application Thereof” (Beijing Hanmi Pharm. Co., Ltd., priority 2017, published 2020)

What was measured:
Assay type in all cases: biochemical
[1] = target: T1, JAK3 kinase (Homo sapiens, UniProt P52333); assay: Inhibition assay of JAK3 kinase activity (ADP-Glo Kinase Assay)
T1 sequence (P52333 1-1124): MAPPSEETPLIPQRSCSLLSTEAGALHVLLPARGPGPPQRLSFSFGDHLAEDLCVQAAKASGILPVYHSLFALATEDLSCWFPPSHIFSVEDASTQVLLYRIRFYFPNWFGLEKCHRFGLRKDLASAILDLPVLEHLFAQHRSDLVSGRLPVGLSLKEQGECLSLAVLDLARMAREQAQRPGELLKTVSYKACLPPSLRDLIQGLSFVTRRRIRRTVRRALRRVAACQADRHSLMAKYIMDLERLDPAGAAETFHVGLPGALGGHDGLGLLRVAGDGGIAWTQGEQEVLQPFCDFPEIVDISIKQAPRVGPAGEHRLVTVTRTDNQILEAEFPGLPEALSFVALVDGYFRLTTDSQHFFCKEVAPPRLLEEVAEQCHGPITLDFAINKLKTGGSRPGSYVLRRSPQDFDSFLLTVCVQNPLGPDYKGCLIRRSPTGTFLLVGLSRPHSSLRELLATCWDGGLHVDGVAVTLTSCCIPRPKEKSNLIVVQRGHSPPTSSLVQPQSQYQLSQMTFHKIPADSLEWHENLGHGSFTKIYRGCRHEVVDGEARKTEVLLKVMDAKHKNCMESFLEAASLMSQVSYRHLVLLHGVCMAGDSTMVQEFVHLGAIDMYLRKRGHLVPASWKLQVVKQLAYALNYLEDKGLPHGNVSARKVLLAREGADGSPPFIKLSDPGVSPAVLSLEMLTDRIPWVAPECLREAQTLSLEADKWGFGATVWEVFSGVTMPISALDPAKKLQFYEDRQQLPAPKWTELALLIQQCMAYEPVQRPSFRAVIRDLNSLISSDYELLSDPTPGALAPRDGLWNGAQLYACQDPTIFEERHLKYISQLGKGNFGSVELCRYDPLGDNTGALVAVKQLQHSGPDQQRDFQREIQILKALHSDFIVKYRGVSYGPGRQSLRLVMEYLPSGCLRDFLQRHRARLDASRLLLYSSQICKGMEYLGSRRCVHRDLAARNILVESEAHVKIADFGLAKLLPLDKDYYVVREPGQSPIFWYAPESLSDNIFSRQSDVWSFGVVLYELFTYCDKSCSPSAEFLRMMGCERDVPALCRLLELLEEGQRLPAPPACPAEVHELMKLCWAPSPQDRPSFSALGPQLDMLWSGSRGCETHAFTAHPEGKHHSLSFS
Source text: Inhibition assay of JAK3 kinase activity: the method in ADP-Glo™ Kinase Assay (Promega, V9102) was used to determine the inhibitory activity of the test compounds against JAK3 kinase.

[2] = target: SYK kinase (Homo sapiens, UniProt P43405); assay: Inhibition assay of SYK kinase activity (ADP-Glo Kinase Assay)
Source text: Inhibition assay of SYK kinase activity: the method in ADP-Glo™ Kinase Assay (Promega, V9102) was used to determine the inhibitory activity of the test compounds against SYK kinase.

[3] = target: JAK2 kinase (Homo sapiens, UniProt O60674); assay: Inhibition assay of JAK2 kinase activity (ADP-Glo Kinase Assay)
Source text: Inhibition assay of JAK2 kinase activity: the method in ADP-Glo™ Kinase Assay (Promega, V9102) was used to determine the inhibitory activity of the test compounds against JAK2 kinase.

[4] = target: T2, TYK2 kinase (Homo sapiens, UniProt P29597); assay: Inhibition assay of TYK2 kinase activity (ADP-Glo Kinase Assay)
T2 construct: purchased Life Technologies PR8440C
Summary of the method: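 Enzyme at 0.8 ng/mL (2-fold final) in 40 mM Tris-HCl pH 7.5, 20 mM MgCl2, 0.1 mg/mL BSA, 1 mM DTT, preincubated 10 min with compound (6 points, 10-fold dilutions from 10 μM). ATP plus polyE4Y1 then added for 60 min at room temperature. ADP-Glo luminescence read and IC50 derived.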

[5] = target: JAK1 kinase (Homo sapiens, UniProt P23458); assay: Inhibition assay of JAK1 kinase activity (ADP-Glo Kinase Assay)
Source text: Inhibition assay of JAK1 kinase activity: the method in ADP-Glo™ Kinase Assay (Promega, V9102) was used to determine the inhibitory activity of the test compounds against JAK1 kinase.

T2 sequence (P29597 whole entry): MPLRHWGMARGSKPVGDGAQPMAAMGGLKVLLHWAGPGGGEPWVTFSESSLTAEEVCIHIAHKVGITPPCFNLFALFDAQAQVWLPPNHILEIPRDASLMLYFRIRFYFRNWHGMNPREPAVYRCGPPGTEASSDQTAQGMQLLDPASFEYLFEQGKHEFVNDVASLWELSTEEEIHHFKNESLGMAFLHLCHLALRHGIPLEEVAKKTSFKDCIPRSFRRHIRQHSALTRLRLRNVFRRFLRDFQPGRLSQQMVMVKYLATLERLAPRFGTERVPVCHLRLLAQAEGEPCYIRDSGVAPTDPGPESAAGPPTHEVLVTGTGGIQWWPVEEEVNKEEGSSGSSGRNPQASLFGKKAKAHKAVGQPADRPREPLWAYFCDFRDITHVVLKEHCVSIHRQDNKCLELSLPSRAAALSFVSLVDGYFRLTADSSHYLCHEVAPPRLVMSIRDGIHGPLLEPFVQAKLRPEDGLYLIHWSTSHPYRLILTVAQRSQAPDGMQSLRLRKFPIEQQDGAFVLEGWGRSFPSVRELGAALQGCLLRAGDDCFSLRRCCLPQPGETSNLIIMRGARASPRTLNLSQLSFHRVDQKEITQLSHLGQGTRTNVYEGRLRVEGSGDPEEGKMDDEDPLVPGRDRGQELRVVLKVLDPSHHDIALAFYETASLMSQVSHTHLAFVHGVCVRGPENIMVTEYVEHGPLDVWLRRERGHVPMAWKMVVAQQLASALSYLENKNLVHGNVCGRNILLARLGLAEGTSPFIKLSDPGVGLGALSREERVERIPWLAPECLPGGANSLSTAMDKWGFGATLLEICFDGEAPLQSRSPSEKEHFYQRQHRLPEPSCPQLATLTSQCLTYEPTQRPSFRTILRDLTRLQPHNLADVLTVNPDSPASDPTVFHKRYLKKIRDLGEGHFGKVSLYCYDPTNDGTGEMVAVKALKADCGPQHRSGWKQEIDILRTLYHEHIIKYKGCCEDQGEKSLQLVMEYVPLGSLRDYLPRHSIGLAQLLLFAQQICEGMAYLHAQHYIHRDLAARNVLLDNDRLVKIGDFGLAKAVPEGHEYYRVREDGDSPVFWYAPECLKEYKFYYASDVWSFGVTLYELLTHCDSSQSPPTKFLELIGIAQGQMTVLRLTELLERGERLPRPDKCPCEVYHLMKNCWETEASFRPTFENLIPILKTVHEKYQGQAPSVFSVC
Chain of JAK2 kinase (O60674 whole entry): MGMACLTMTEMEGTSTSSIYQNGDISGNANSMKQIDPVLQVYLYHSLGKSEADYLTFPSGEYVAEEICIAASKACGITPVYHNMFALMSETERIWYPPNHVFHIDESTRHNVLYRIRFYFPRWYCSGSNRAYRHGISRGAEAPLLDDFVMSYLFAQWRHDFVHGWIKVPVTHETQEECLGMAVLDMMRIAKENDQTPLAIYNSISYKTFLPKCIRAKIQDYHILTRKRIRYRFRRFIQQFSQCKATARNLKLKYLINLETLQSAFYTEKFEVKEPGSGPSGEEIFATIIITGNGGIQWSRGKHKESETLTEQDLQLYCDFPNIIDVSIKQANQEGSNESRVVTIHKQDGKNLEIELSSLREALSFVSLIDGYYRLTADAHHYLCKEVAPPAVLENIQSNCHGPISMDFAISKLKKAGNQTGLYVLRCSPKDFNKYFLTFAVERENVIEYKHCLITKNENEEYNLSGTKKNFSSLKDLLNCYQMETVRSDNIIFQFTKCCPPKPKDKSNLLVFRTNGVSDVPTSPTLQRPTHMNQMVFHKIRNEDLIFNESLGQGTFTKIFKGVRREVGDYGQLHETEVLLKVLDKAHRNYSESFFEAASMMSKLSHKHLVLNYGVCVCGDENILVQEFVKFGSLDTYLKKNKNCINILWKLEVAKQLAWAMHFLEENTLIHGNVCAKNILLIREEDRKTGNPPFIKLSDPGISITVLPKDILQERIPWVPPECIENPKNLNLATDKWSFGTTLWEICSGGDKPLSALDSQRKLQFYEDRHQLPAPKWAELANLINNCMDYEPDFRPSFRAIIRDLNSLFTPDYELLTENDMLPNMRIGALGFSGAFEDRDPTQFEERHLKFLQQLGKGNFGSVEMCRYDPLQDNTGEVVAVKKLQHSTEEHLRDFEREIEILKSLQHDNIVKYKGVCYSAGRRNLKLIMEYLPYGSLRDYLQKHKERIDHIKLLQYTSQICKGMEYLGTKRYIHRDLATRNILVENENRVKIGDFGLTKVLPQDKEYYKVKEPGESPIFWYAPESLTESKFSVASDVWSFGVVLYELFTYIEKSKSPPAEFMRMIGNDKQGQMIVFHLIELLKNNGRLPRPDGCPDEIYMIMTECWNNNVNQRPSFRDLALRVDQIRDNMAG
Chain of JAK1 kinase (P23458 whole entry): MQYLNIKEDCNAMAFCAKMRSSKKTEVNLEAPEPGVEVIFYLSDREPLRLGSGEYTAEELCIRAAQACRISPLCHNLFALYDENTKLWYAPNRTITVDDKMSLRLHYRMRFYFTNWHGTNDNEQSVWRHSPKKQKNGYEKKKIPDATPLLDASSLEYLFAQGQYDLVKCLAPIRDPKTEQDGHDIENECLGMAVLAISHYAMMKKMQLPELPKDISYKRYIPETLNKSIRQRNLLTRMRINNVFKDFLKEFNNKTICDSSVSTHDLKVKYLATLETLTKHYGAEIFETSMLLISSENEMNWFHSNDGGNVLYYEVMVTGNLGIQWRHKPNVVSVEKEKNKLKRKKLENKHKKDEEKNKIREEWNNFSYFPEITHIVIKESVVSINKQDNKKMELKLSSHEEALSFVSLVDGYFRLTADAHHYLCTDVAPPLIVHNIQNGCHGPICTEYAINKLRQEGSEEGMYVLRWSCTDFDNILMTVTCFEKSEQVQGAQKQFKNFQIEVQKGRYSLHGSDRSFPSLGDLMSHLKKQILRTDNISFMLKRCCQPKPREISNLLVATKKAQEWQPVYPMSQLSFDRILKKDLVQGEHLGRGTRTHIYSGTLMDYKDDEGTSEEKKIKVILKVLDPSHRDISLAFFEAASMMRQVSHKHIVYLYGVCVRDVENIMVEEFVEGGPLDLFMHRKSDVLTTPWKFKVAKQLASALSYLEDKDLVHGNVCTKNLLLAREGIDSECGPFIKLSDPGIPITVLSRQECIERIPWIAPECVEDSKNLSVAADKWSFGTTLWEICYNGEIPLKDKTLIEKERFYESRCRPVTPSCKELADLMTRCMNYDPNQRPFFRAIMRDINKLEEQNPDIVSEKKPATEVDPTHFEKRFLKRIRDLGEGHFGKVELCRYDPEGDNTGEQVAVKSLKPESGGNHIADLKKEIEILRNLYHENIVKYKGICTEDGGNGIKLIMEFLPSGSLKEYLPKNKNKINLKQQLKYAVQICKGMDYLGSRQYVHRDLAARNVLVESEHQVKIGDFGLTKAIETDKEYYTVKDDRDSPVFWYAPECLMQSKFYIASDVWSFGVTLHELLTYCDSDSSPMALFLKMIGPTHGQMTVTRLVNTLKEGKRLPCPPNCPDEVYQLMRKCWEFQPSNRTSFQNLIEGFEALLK

Row | IC50 [1] | IC50 [2] | IC50 [3] | IC50 [4] | IC50 [5] | SMILES
1 | < 0.01 µM | 0.01 to 0.1 µM | < 0.01 µM | < 0.01 µM | 0.01 to 0.1 µM | NC(=O)c1cnc(Nc2ccc3c(c2)NC[C@@H](O)CO3)nc1NC1CC1 [Example 25, (R)-4-(cyclopropylamino)-2-((3-hydroxy-2,3,4,5-tetrahydro-benzo[b][1,4]oxazepin-7-yl)amino)pyrimidin-5-carboxamide]
2 | 0.01 to 0.1 µM | 0.01 to 0.1 µM | 0.01 to 0.1 µM | < 0.01 µM | < 0.01 µM | C=CCNc1nc(Nc2ccc3c(c2)NC[C@H](O)CO3)ncc1C(N)=O [Example 60, 4-(allylamino)-2-(((S)-2,3,4,5-tetrahydro-3-hydroxybenzo[b][1,4]oxazepin-7-yl)amino)pyrimidin-5-carboxamide]
3 |  | 0.01 to 0.1 µM |  | < 0.01 µM | < 0.01 µM | NC(=O)c1cnc(Nc2ccc3c(c2)NC[C@H](OCC2CCCCO2)CO3)nc1NC1CC1 (stereo partly drawn) [Example 99, 4-(cyclopropylamino)-2-(((S)-2,3,4,5-tetrahydro-3-(tetrahydro-2H-2-pyranylmethoxy)benzo[b][1,4]oxazepin-7-yl)amino)pyrimidin-5-carboxamide]
4 | < 0.01 µM | 0.01 to 0.1 µM | < 0.01 µM | < 0.01 µM |  | CO[C@H]1CNc2cc(Nc3ncc(C(N)=O)c(NC4C5CC6CC4CC(O)(C6)C5)n3)ccc2OC1 (stereo partly drawn) [Example 90, 4-((5-hydroxyadamantan-2-yl)amino)-2-(((S)-2,3,4,5-tetrahydro-3-methoxybenzo[b][1,4]oxazepin-7-yl)amino)pyrimidin-5-carboxamide]
5 | 0.01 to 0.1 µM |  | 0.01 to 0.1 µM | < 0.01 µM | < 0.01 µM | NC(=O)c1cnc(Nc2ccc3c(c2)NC[C@H](OCC2CCCOC2)CO3)nc1NC1CC1 (stereo partly drawn) [Example 102, 4-(cyclopropylamino)-2-(((S)-2,3,4,5-tetrahydro-3-((tetrahydropyran-3-yl)methoxy)benzo[b][1,4]oxazepin-7-yl)amino)pyrimidin-5-carboxamide]
6 | < 0.01 µM |  | 0.01 to 0.1 µM | < 0.01 µM | < 0.01 µM | NC(=O)c1cnc(Nc2ccc3c(c2)NCC(O)CO3)nc1NC1CC1 (stereo not drawn) [Example 2, 4-(cyclopropylamino)-2-((3-hydroxy-2,3,4,5-tetrahydro-benzo[b][1,4]oxazepin-7-yl)amino)pyrimidin-5-carboxamide]
7 | 0.01 to 0.1 µM |  | 0.01 to 0.1 µM | < 0.01 µM | 0.01 to 0.1 µM | CS(=O)(=O)CCNc1nc(Nc2ccc3c(c2)NC[C@H](O)CO3)ncc1C(N)=O [Example 67, 4-((2-methanesulfonylethyl)amino)-2-(((S)-2,3,4,5-tetrahydro-3-hydroxybenzo[b][1,4]oxazepin-7-yl)amino)pyrimidin-5-carboxamide]
8 | < 0.01 µM |  | < 0.01 µM | < 0.01 µM | < 0.01 µM | CC(C)CNc1nc(Nc2ccc3c(c2)NC[C@H](O)CO3)ncc1C(N)=O [Example 70, 4-(isobutylamino)-2-(((S)-2,3,4,5-tetrahydro-3-hydroxybenzo[b][1,4]oxazepin-7-yl)amino)pyrimidin-5-carboxamide]
9 | 0.01 to 0.1 µM |  | 0.01 to 0.1 µM | < 0.01 µM | 0.01 to 0.1 µM | NC(=O)c1cnc(Nc2ccc3c(c2)NC[C@H](O)CO3)nc1NC1CCOC1 (stereo partly drawn) [Example 64, 4-(tetrahydrofuran-3-ylamino)-2-(((S)-2,3,4,5-tetrahydro-3-hydroxybenzo[b][1,4]oxazepin-7-yl)amino)pyrimidin-5-carboxamide]
10 | < 0.01 µM |  | < 0.01 µM | < 0.01 µM | < 0.01 µM | NC(=O)c1cnc(Nc2ccc3c(c2)NC[C@H](O)CO3)nc1NCC1CCC1 [Example 56, 4-((cyclobutylmethyl)amino)-2-(((S)-2,3,4,5-tetrahydro-3-hydroxybenzo[b][1,4]oxazepin-7-yl)amino)pyrimidin-5-carboxamide]
11 | < 0.01 µM |  | < 0.01 µM | < 0.01 µM | < 0.01 µM | CC(Nc1nc(Nc2ccc3c(c2)NC[C@H](O)CO3)ncc1C(N)=O)C1CC1 (stereo partly drawn) [Example 55, 4-((1-cyclopropylethyl)amino)-2-(((S)-2,3,4,5-tetrahydro-3-hydroxybenzo[b][1,4]oxazepin-7-yl)amino)pyrimidin-5-carboxamide]
12 | < 0.01 µM |  | < 0.01 µM | < 0.01 µM | 0.01 to 0.1 µM | NC(=O)c1cnc(Nc2ccc3c(c2)NC[C@H](O)CO3)nc1NCC1CCCCC1 [Example 50, 4-((cyclohexylmethyl)amino)-2-(((S)-2,3,4,5-tetrahydro-3-hydroxybenzo[b][1,4]oxazepin-7-yl)amino)pyrimidin-5-carboxamide]
13 | < 0.01 µM |  | < 0.01 µM | < 0.01 µM | < 0.01 µM | CCCCCNc1nc(Nc2ccc3c(c2)NC[C@H](O)CO3)ncc1C(N)=O [Example 75, 4-(pentylamino)-2-(((S)-2,3,4,5-tetrahydro-3-hydroxybenzo[b][1,4]oxazepin-7-yl)amino)pyrimidin-5-carboxamide]
14 | < 0.01 µM |  | < 0.01 µM | < 0.01 µM | < 0.01 µM | COC12CC3CC(C1)C(Nc1nc(Nc4ccc5c(c4)NC[C@H](O)CO5)ncc1C(N)=O)C(C3)C2 (stereo partly drawn) [Example 46, 4-((5-methoxyadamantan-2-yl)amino)-2-(((S)-2,3,4,5-tetrahydro-3-hydroxybenzo[b][1,4]oxazepin-7-yl)amino)pyrimidin-5-carboxamide]
15 |  | 0.01 to 0.1 µM |  | < 0.01 µM | < 0.01 µM | NC(=O)c1cnc(Nc2ccc3c(c2)NCC(O)CO3)nc1NC1CCC1 (stereo not drawn) [Example 1, 4-(cyclobutylamino)-2-((3-hydroxy-2,3,4,5-tetrahydro-benzo[b][1,4]oxazepin-7-yl)amino)pyrimidin-5-carboxamide]
16 | 0.01 to 0.1 µM |  | 0.01 to 0.1 µM | < 0.01 µM | 0.01 to 0.1 µM | NC(=O)c1cnc(Nc2ccc3c(c2)NC[C@H](O)CO3)nc1NCCN1CCOCC1 [Example 61, 4-((2-morpholinoethyl)amino)-2-(((S)-2,3,4,5-tetrahydro-3-hydroxybenzo[b][1,4]oxazepin-7-yl)amino)pyrimidin-5-carboxamide]
17 | 0.01 to 0.1 µM |  | 0.01 to 0.1 µM | < 0.01 µM | 0.01 to 0.1 µM | NC(=O)c1cnc(Nc2ccc3c(c2)NC[C@H](O)CO3)nc1NC1CC(F)(F)C1 [Example 54, 4-((3,3-difluorocyclobutyl)amino)-2-(((S)-2,3,4,5-tetrahydro-3-hydroxybenzo[b][1,4]oxazepin-7-yl)amino)pyrimidin-5-carboxamide]
18 | 0.01 to 0.1 µM |  | 0.01 to 0.1 µM | < 0.01 µM | 0.01 to 0.1 µM | CC(C)(C)Nc1nc(Nc2ccc3c(c2)NC[C@H](O)CO3)ncc1C(N)=O [Example 53, 4-(tert-butylamino)-2-(((S)-2,3,4,5-tetrahydro-3-hydroxybenzo[b][1,4]oxazepin-7-yl)amino)pyrimidin-5-carboxamide]

Row | SMILES | IC50 [1] | IC50 [2] | IC50 [3] | IC50 [4] | IC50 [5]
19 | COCCCCO[C@H]1CNc2cc(Nc3ncc(C(N)=O)c(NC4CC4)n3)ccc2OC1 [Example 100, 4-(cyclopropylamino)-2-(((S)-2,3,4,5-tetrahydro-3-(4-methoxybutoxy)benzo[b][1,4]oxazepin-7-yl)amino)pyrimidin-5-carboxamide] |  | 0.01 to 0.1 µM |  | < 0.01 µM | < 0.01 µM
